Experimental data as given in BindingDB's records for PubMed 35785990 (Sage Therapeutics, 2022).

Target: Inward rectifier potassium channel 2 (Homo sapiens) (UniProt P63252)
Experiment: Inhibition of Kir2.1 (unknown origin) by patch clamp method

Sequence of Inward rectifier potassium channel 2 (Homo sapiens) (P63252 whole entry, looked up): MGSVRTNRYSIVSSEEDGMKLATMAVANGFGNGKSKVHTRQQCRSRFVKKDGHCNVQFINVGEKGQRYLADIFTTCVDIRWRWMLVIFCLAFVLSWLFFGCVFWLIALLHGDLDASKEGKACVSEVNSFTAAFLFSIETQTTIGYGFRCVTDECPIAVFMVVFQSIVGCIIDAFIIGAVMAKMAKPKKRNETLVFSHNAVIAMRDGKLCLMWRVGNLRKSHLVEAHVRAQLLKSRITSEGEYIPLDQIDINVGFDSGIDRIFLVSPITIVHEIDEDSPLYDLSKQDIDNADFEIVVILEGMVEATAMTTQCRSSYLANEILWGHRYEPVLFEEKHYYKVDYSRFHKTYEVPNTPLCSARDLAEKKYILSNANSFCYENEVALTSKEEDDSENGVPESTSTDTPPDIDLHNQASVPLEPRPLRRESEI

IC50: > 30 µM
Structure (SMILES): C[C@H](CC[C@](C)(O)C(F)(F)F)[C@H]1CC[C@H]2[C@@H]3CC=C4C[C@@](C)(O)CC[C@]4(C)[C@H]3CC[C@]12C [Dalzanemdor]
